Laboratory results published in patent US12059422B2 (MEI Pharma, Inc., priority 2011, dated 2024).

Tests used:
PI3Kδ = target: T1, PI3Kδ (Homo sapiens, UniProt O00329); assay: ELISA assay for PI3Kδ: sandwich ELISA, phosphorylation of AKT (Thr308) in Raji cells; assay type: cell-based; conditions: for IC50: cellular, pAKT (Thr308), Raji cells, anti-Human IgM stimulation, read-out: IC50 p110δ; for α/δ ratio / β/δ ratio / γ/δ ratio: ratio of cellular IC50 values, Table 2
T1 construct: endogenous in cells; host or cells: Raji (ATCC #CCL-86)
T1 sequence (O00329 whole entry): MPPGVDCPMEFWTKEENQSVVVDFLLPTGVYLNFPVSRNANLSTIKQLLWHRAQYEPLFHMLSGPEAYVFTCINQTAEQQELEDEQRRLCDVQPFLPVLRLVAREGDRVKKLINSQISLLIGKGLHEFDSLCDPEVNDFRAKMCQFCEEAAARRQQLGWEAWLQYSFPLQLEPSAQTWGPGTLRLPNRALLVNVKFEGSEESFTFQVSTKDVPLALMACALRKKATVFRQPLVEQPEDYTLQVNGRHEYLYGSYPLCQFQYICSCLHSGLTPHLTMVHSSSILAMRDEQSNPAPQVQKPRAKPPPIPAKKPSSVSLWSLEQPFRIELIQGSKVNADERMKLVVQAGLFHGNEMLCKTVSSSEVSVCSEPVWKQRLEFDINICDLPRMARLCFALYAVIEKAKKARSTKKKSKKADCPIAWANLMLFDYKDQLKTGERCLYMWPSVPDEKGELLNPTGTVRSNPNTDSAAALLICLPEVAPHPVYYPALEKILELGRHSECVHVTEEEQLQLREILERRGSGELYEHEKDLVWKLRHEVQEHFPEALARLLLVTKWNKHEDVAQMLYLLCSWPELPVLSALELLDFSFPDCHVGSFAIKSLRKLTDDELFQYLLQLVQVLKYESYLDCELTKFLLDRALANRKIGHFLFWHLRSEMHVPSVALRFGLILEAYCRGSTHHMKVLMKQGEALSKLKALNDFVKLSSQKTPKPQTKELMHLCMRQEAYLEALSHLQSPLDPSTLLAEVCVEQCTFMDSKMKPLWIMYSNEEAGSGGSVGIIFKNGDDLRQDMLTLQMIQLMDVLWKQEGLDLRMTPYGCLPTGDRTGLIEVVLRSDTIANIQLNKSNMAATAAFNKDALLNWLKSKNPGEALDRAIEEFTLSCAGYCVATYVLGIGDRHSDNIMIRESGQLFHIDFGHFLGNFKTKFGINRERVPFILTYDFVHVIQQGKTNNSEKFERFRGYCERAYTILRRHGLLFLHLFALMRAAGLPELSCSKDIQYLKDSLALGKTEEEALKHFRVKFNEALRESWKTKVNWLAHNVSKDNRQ
T1 sequence (P27986 whole entry partner): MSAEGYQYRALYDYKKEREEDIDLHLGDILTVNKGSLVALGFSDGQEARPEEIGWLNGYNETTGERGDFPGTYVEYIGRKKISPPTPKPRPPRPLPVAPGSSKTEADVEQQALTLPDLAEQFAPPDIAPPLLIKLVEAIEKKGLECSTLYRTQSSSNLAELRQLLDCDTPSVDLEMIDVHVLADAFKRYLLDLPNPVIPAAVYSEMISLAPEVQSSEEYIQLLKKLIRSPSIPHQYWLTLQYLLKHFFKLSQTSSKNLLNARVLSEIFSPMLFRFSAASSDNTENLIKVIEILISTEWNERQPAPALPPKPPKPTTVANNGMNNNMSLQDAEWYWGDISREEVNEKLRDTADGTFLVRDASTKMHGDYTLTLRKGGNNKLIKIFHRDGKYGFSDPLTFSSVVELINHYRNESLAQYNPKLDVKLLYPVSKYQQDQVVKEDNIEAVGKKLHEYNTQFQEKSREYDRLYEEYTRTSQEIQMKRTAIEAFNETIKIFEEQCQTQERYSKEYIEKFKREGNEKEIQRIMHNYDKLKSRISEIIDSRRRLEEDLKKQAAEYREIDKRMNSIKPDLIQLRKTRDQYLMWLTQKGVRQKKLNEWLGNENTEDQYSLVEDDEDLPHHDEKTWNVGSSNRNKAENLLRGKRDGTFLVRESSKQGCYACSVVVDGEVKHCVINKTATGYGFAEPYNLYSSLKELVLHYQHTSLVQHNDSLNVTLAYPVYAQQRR
Summary of the method: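 Raji cells, serum-starved 2 hrs, treated with compound (10 concentrations) for 2 hrs at 37° C, then stimulated 30 min with anti-human IgM. Lysates analysed by sandwich ELISA for pAKT Thr308 and total AKT with luminescent read-out. IC50 from curve fitting.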

PI3Kα = PI3Kα (Homo sapiens, UniProt P42336); assay: ELISA assay for PI3Kα: in-cell ELISA, phosphorylation of AKT (Thr308) in MDA-MB-453 cells; assay type: cell-based; conditions: cellular, pAKT (Thr308), IGF-1 stimulation, read-out: IC50 p110α
PI3Kα, sequence (P27986 2-724): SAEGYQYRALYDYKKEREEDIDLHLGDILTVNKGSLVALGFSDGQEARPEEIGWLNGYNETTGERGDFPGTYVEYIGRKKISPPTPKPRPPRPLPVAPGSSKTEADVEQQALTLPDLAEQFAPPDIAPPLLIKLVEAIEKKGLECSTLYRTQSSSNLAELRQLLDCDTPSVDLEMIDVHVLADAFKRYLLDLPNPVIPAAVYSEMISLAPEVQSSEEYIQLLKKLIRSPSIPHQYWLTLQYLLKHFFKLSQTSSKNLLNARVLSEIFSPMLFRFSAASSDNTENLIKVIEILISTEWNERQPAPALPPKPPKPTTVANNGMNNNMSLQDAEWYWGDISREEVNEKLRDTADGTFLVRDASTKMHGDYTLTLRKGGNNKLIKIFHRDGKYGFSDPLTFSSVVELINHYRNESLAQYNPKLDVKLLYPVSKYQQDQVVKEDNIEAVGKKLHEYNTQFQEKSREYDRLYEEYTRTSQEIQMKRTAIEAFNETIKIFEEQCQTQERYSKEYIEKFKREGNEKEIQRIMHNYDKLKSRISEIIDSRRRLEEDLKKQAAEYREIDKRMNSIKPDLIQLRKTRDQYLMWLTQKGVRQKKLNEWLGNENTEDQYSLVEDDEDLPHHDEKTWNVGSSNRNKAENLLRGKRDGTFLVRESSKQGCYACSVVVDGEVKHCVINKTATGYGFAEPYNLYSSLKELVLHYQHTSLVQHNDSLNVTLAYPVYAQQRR
PI3Kα, sequence (P42336 whole entry): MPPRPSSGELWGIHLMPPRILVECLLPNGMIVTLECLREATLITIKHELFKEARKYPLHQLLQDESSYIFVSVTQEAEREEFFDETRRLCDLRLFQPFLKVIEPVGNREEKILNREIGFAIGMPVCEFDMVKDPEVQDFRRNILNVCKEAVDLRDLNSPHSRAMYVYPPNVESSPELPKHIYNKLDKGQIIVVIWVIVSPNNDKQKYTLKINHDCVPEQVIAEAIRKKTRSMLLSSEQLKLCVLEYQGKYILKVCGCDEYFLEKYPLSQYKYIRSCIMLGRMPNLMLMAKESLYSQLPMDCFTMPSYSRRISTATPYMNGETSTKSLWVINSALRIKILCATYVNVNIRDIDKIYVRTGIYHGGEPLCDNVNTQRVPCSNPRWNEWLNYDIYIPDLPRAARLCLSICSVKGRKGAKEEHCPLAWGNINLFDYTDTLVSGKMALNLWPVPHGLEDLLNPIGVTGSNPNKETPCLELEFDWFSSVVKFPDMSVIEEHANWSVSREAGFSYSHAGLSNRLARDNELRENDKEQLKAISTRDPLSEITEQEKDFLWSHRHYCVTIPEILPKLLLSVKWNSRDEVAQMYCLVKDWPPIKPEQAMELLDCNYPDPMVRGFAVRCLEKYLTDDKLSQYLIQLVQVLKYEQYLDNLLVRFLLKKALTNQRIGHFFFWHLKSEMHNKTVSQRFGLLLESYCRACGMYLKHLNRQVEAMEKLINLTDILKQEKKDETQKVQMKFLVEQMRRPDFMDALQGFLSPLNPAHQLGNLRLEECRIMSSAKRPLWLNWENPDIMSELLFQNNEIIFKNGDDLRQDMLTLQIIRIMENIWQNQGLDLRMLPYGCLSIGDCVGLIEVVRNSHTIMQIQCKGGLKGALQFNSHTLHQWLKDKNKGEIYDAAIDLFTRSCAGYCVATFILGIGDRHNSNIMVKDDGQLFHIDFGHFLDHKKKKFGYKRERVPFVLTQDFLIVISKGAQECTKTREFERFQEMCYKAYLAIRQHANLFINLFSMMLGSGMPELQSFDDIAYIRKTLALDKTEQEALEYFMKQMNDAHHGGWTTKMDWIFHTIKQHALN

mTOR = mTOR (Homo sapiens, UniProt P42345); assay: mTOR inhibition (Table 1); assay type: biochemical; conditions: Table 1, no method described

IC50 (PI3Kδ) [nM]	α/δ ratio (PI3Kδ)	β/δ ratio (PI3Kδ)	γ/δ ratio (PI3Kδ)	IC50 (PI3Kα) [nM]	IC50 (mTOR) [nM]	Compound
≤ 100	A’	C’	A’	> 500	> 500	CC(C)(Cc1ccccc1F)Nc1nc(N2CCOCC2)nc(-n2c(C(F)F)nc3ccccc32)n1 [Compound A15, 4-(2-(difluoromethyl)-1H-benzo[d]imidazol-1-yl)-N-(1-(2-fluorophenyl)-2-methylpropan-2-yl)-6-morpholino-1,3,5-triazin-2-amine]
≤ 100	A’	A’	A’	> 500	> 500	CC(C)(Cc1ccccc1)Nc1nc(N2CCOCC2)nc(-n2c(C(F)F)nc3ccccc32)n1 [Compound A14, 4-(2-(difluoromethyl)-1H-benzo[d]imidazol-1-yl)-N-(2-methyl-1-phenylpropan-2-yl)-6-morpholino-1,3,5-triazin-2-amine]
≤ 100	A’	A’	A’	> 500	> 500	CC(C)N1CCC(c2ccccc2CC(C)(C)Nc2nc(N3CCOCC3)nc(-n3c(C(F)F)nc4ccccc43)n2)CC1 [Compound A71, 4-(2-(difluoromethyl)-1H-benzo[d]imidazol-1-yl)-N-(1-(2-(1-isopropylpiperidin-4-yl)phenyl)-2-methylpropan-2-yl)-6-morpholino-1,3,5-triazin-2-amine]
